Data published in ChEMBL document CHEMBL1150831, “Immunosuppressive sesquiterpene alkaloids from Tripterygium wilfordii” (2001).
Calls of active or inactive are those of the source. The rule behind the calls is not given here.

What was measured:
Assay type in all cases: functional
PBMC [1] = assay: Immunosuppressive activity in human PBMC assessed as inhibition of LPS-stimulated TNFalpha production at 10 ug/mL after 18 to 24 hrs by ELISA
PBMC [2] = assay: Immunosuppressive activity in human PBMC assessed as inhibition of LPS-stimulated IL1-beta production at 10 ug/mL after 18 to 24 hrs by ELISA
PBMC [3] = assay: Immunosuppressive activity in human PBMC assessed as inhibition of LPS-stimulated IL8 production at 10 ug/mL after 18 to 24 hrs by ELISA
PBMC [4] = assay: Immunosuppressive activity in human PBMC assessed as inhibition of LPS-stimulated IL2 production at 10 ug/mL after 18 to 24 hrs by ELISA
PBMC [5] = assay: Immunosuppressive activity in human PBMC assessed as inhibition of LPS-stimulated IL4 production at 10 ug/mL after 18 to 24 hrs by ELISA
PBMC [6] = assay: Immunosuppressive activity in human PBMC assessed as inhibition of LPS-stimulated IFN-gamma production at 10 ug/mL after 18 to 24 hrs by ELISA

Row | Compound | inhibition at 10 µg/mL (PBMC [1]) [%] | inhibition at 10 µg/mL (PBMC [2]) [%] | inhibition at 10 µg/mL (PBMC [3]) [%] | inhibition at 10 µg/mL (PBMC [4]) [%] | inhibition at 10 µg/mL (PBMC [5]) [%] | inhibition at 10 µg/mL (PBMC [6]) [%] | inhibition (PBMC [1]) | inhibition (PBMC [2]) | inhibition (PBMC [3]) | inhibition (PBMC [4]) | inhibition (PBMC [5]) | inhibition (PBMC [6])
1 | CC(=O)OC[C@]12[C@H](OC(C)=O)[C@H](OC(C)=O)[C@@H]3[C@@H](O)[C@@]14O[C@@]3(C)COC(=O)c1cccnc1CC[C@@](C)(OC(=O)c1ccccc1)C(=O)O[C@@H]([C@H](OC(C)=O)[C@@H]2OC(C)=O)[C@]4(C)O [WILFORNINE B] | -6 | -3 | -23 | 22 | 100 | 7 | – | – | – | – | – | –
2 | CC(=O)OC[C@]12[C@H](OC(C)=O)C(=O)[C@@H]3[C@@H](OC(C)=O)[C@@]14O[C@@]3(C)COC(=O)c1cnccc1CCC(C)(O)C(=O)O[C@@H]([C@H](OC(C)=O)[C@@H]2OC(C)=O)[C@]4(C)O (stereo partly specified) | 10 | 18 | 64 | 47 | 77 | 62 | – | – | – | – | – | –
3 | CC(=O)OC[C@]12[C@H](OC(C)=O)[C@H](OC(C)=O)[C@@H]3[C@@H](OC(C)=O)[C@@]14O[C@@]3(C)COC(=O)c1cccnc1CC[C@@](C)(O)C(=O)O[C@@H]([C@H](OC(=O)c1ccccc1)[C@@H]2OC(C)=O)[C@]4(C)O | 2 | -6 | 8 | 35 | 50 | 4 | – | – | – | – | – | –
4 | CC(=O)OC[C@]12[C@H](OC(C)=O)[C@H](OC(C)=O)[C@@H]3[C@@H](OC(C)=O)[C@@]14O[C@@]3(C)COC(=O)c1cccnc1CC[C@@](C)(OC(=O)c1ccccc1)C(=O)O[C@@H]([C@H](OC(C)=O)[C@@H]2OC(C)=O)[C@]4(C)O [WILFORNINE A] | 0 | -4 | 2 | 23 | 50 | 8 | – | – | – | – | – | –
5 | CC(=O)OC[C@]12[C@H](OC(C)=O)[C@H](OC(C)=O)[C@@H]3[C@@H](OC(=O)c4ccccc4)[C@@]14O[C@@]3(C)COC(=O)c1cccnc1C(C)C(C)C(=O)O[C@@H]([C@H](OC(C)=O)[C@@H]2OC(=O)c1ccccc1)[C@]4(C)O (stereo partly specified) | 76 | 49 | 97 | 100 | 100 | 92 | – | – | – | – | – | –
6 | CC(=O)OC[C@]12[C@H](OC(C)=O)[C@H](OC(C)=O)[C@@H]3[C@@H](OC(C)=O)[C@@]14O[C@@]3(C)COC(=O)c1cccnc1C(C)C(C)C(=O)O[C@@H]([C@H](OC(C)=O)[C@@H]2OC(=O)c1ccccc1)[C@]4(C)O (stereo partly specified) [MAYTEINE] | -9 | 2 | 2 | 55 | 14 | 36 | – | – | – | – | – | –
7 | CC(=O)OC[C@]12[C@H](OC(C)=O)C(=O)[C@@H]3[C@@H](OC(C)=O)[C@@]14O[C@@]3(C)COC(=O)c1cccnc1CC[C@@](C)(O)C(=O)O[C@@H]([C@H](OC(C)=O)[C@@H]2OC(C)=O)[C@]4(C)O | – | – | – | – | – | – | inactive | inactive | inactive | inactive | inactive | inactive
8 | CC(=O)OC[C@]12[C@H](OC(C)=O)[C@H](OC(C)=O)[C@@H]3[C@@H](OC(=O)c4ccccc4)[C@@]14O[C@@]3(C)COC(=O)c1cccnc1C(C)C(C)C(=O)O[C@@H]([C@H](O)[C@@H]2OC(C)=O)[C@]4(C)O (stereo partly specified) | – | – | – | – | – | – | inactive | inactive | inactive | inactive | inactive | inactive
9 | CC(=O)OC[C@]12[C@H](OC(C)=O)[C@H](OC(C)=O)[C@@H]3[C@@H](OC(C)=O)[C@@]14O[C@@]3(C)COC(=O)c1cccnc1CC[C@H](C)C(=O)O[C@@H]([C@H](OC(=O)c1ccccc1)[C@@H]2OC(C)=O)[C@]4(C)O | 79 | 64 | 1 | 67 | 16 | 41 | – | – | – | – | – | –
10 | CC(=O)OC[C@]12[C@H](OC(C)=O)[C@H](OC(C)=O)[C@@H]3[C@@H](OC(C)=O)[C@@]14O[C@@]3(C)COC(=O)c1cccnc1C(C)C(C)C(=O)O[C@@H]([C@H](OC(C)=O)[C@@H]2OC(C)=O)[C@]4(C)O (stereo partly specified) [EUONYMINE] | 55 | 47 | 31 | 53 | 11 | 28 | – | – | – | – | – | –
11 | CC(=O)OC[C@]12[C@H](OC(C)=O)[C@H](OC(C)=O)[C@@H]3[C@@H](OC(C)=O)[C@@]14O[C@@]3(C)COC(=O)c1cnccc1C(C)C(C)C(=O)O[C@@H]([C@H](OC(C)=O)[C@@H]2O)[C@]4(C)O (stereo partly specified) | – | – | – | – | – | – | inactive | inactive | inactive | inactive | inactive | inactive
12 | CC(=O)OC[C@]12[C@H](OC(C)=O)[C@H](OC(C)=O)[C@@H]3[C@@H](OC(C)=O)[C@@]14O[C@@]3(C)COC(=O)c1cccnc1CC[C@@](C)(O)C(=O)O[C@@H]([C@H](OC(C)=O)[C@@H]2OC(C)=O)[C@]4(C)O | – | – | – | – | – | – | inactive | inactive | inactive | inactive | inactive | inactive
13 | CC(=O)OC[C@]12[C@H](OC(C)=O)[C@H](OC(C)=O)[C@@H]3[C@@H](OC(=O)c4ccccc4)[C@@]14O[C@@]3(C)COC(=O)c1cccnc1C(C)C(C)C(=O)O[C@@H]([C@H](OC(C)=O)[C@@H]2OC(C)=O)[C@]4(C)O (stereo partly specified) | 37 | 43 | 84 | 100 | 100 | 99 | – | – | – | – | – | –
14 | CC(=O)OC[C@]12[C@H](OC(C)=O)[C@H](OC(C)=O)[C@@H]3[C@@H](OC(=O)c4ccccc4)[C@@]14O[C@@]3(C)COC(=O)c1cccnc1CC[C@@](C)(OC(=O)c1ccccc1)C(=O)O[C@@H]([C@H](OC(C)=O)[C@@H]2OC(C)=O)[C@]4(C)O [WILFORNINE C] | -11 | -6 | -8 | 51 | 39 | 32 | – | – | – | – | – | –
15 | CC(=O)OC[C@]12[C@H](OC(C)=O)[C@H](OC(C)=O)[C@@H]3[C@@H](OC(C)=O)[C@@]14O[C@@]3(C)COC(=O)c1cccnc1CC[C@H](C)C(=O)O[C@@H]([C@H](OC(=O)c1ccco1)[C@@H]2OC(C)=O)[C@]4(C)O | 64 | 53 | 7 | 22 | -53 | 4 | – | – | – | – | – | –
16 | CC(=O)OC[C@]12[C@H](OC(C)=O)[C@H](OC(C)=O)[C@@H]3[C@@H](OC(C)=O)[C@@]14O[C@@]3(C)COC(=O)c1cnccc1C(C)C(C)(O)C(=O)O[C@@H]([C@H](OC(=O)c1ccccc1)[C@@H]2OC(C)=O)[C@]4(C)O (stereo partly specified) [HYPOGLAUNINE C] | -28 | 2 | -26 | 57 | 51 | 20 | – | – | – | – | – | –
17 | CC(=O)OC[C@]12[C@H](OC(C)=O)[C@H](OC(C)=O)[C@@H]3[C@@H](OC(C)=O)[C@@]14O[C@@]3(C)COC(=O)c1cccnc1CC[C@@](C)(OC(=O)c1ccco1)C(=O)O[C@@H]([C@H](OC(C)=O)[C@@H]2OC(C)=O)[C@]4(C)O | – | – | – | – | – | – | inactive | inactive | inactive | inactive | inactive | inactive
18 | CC(=O)OC[C@]12[C@H](OC(C)=O)[C@H](OC(C)=O)[C@@H]3[C@@H](OC(=O)c4ccccc4)[C@@]14O[C@@]3(C)COC(=O)c1cnccc1C(C)C(C)(O)C(=O)O[C@@H]([C@H](OC(=O)c1ccccc1)[C@@H]2OC(C)=O)[C@]4(C)O (stereo partly specified) | – | – | – | – | – | – | inactive | inactive | inactive | inactive | inactive | inactive
19 | CC(=O)OC[C@]12[C@H](OC(C)=O)[C@H](OC(C)=O)[C@@H]3[C@@H](OC(C)=O)[C@@]14O[C@@]3(C)COC(=O)c1cccnc1CC[C@H](C)C(=O)O[C@@H]([C@H](OC(C)=O)[C@@H]2OC(C)=O)[C@]4(C)O [WILFORMINE] | 20 | 14 | 60 | 50 | 77 | 71 | – | – | – | – | – | –
20 | CC(=O)OC[C@]12[C@H](OC(C)=O)[C@H](OC(=O)c3cccnc3)[C@@H]3[C@@H](OC(C)=O)[C@@]14O[C@@]3(C)COC(=O)c1cccnc1C(C)C(C)C(=O)O[C@@H]([C@H](OC(C)=O)[C@@H]2OC(C)=O)[C@]4(C)O (stereo partly specified) | – | – | – | – | – | – | inactive | inactive | inactive | inactive | inactive | inactive
21 | COC(=O)C[C@@H]1C(=O)CCC(C)C(=O)O[C@@H]2[C@@H]3[C@@H](OC(C)=O)[C@@]45O[C@@]3(C)COC(=O)c3cccnc3C(C)C(C)C(=O)O[C@@H]([C@H](OC(C)=O)[C@H](OC(C)=O)[C@@]4(COC1=O)[C@@H]2OC(C)=O)[C@]5(C)O (stereo partly specified) [TRIPTONINE A] | 62 | 55 | 43 | 33 | -20 | 17 | – | – | – | – | – | –
